Measured values as given in PMC8066774, “Binding and Action of Triphenylphosphonium Analog of Chloramphenicol upon the Bacterial Ribosome” (Antibiotics, 2021).

What was measured:
[1] = system: E. coli BW25113 ΔtolC pDualRep2 reporter strain; test: In vivo dual-reporter (pDualrep2) assay on agar plate: Katushka2S / RFP induction and growth inhibition zone; format: cell-based; details: overnight 37 °C; for Induction of fluorescent reporters (Katushka2S = ribosome stalling; RFP = DNA damage/SOS response): drops of DMSO solutions (CAM-C4-TPP 20 mM, C4-TPP 20 mM, CAM 2 mM, CHL 2 mM, ERY 6.8 mM, LEV 69 nM)
Description: Since CAM-C4-TPP is a semi-synthetic analog of the PTC-targeting antibiotic CHL, we expected that, similar to CHL, CAM-C4-TPP would also bind and act upon the bacterial ribosome inhibiting protein synthesis. However, we could not rule out the possibility that the presence of the additional TPP group could alter the intracellular target of the CAM-C4-TPP molecule. To check whether protein synthesis remains the primary target of CAM-C4-TPP action in the bacterial cells, we used an E. coli-based in vivo reporter system that is designed for screening of inhibitors targeting either DNA replication or protein synthesis.
(§1) Figure 2 CAM-C4-TPP is a potent inhibitor of protein synthesis both in vivo and in vitro. (A) In vivo testing of CAM-C4-TPP activity using E. coli BW25113 ΔtolC pDualRep2 reporter strains. The induction of the red fluorescent protein (RFP) expression (green halo around the inhibition zone) is triggered by DNA-damage, while the induction of Katushka2S protein (red halo) occurs in response to ribosome stalling. Levofloxacin (LEV), erythromycin (ERY), and chloramphenicol (CHL) are used as controls. This image is an overlay of the two images from the independent detections of RFP (Cy3 mode) or Ktushka2S (Cy5 mode) by ChemiDoc MP (Bio-Rad) with RFP fluorescence shown in green pseudocolor and Katushka2S fluorescence shown in red pseudocolor. (B,C) Competition-binding assay to test the displacement of fluorescently labeled BODIPY-CAM (B) or BODIPY-ERY (C) analogs from the E. coli 70S ribosomes in the presence of increasing concentrations of CAM (open diamonds), CHL (blue squares), or CAM-C4-TPP (red circles) measured by fluorescence anisotropy. All reactions were repeated three times. Error bars represent standard deviation. ND, no displacement. The resulting values for apparent dissociation constants (KDapp) are shown on each plot. (D) Inhibition of protein synthesis by increasing concentrations of CHL (blue squares) or CAM-C4-TPP (red circles) in the in vitro cell-free transcription-translation coupled system. The relative enzymatic activity of in vitro synthesized firefly luciferase is shown. Error-bars represent standard deviations of the mean of three independent measurements. TEXT PRINTED IN THE PICTURE: (D) CHL: IC50, μM: 2.8±0.5 | (D) CAM-C4-TPP: IC50, μM: 0.9±0.2 | (B) CAM: KDApp, μM: 420±240 | (B) CHL: KDApp, μM: 2.6±1.5 | (B) CAM-C4-TPP: KDApp, μM: 0.6±0.4 | (C) CAM: KDApp, μM: ND | (C) CHL: KDApp, μM: 2.8±0.5 | (C) CAM-C4-TPP: KDApp, μM: 0.61±0.07
For the in vivo bioactivity test (Figure 2A), we used the reporter strain BW25113ΔtolC-pDualrep2 as described previously. Briefly, 1.5 µL of the solutions of CAM-C4-TPP (20 mM), C4-TPP (20 mM), CAM (2 mM), and 1 µL of the solutions of CHL (2 mM), erythromycin (ERY, 6.8 mM), and levofloxacin (LEV, 69 nM) in DMSO were applied onto the agar plate that already contained a lawn of the reporter strain. After overnight incubation at 37 °C, the plate was scanned by ChemiDoc (Bio-Rad, USA) using “Cy3-blot” mode for RFP fluorescence and “Cy5-blot” mode for Katushka2S fluorescence.

E. coli 70S ribosomes [2] = test: Competition-binding assay, displacement of BODIPY-CAM measured by fluorescence anisotropy; details: for Kd: BODIPY-CAM 30 nM, ribosomes 2.9 µM, 25 °C, pH 7.5, n=3, read-out: Apparent dissociation constant KDapp, displacement of BODIPY-CAM
Description: (§2) Figure 2 CAM-C4-TPP is a potent inhibitor of protein synthesis both in vivo and in vitro. (A) In vivo testing of CAM-C4-TPP activity using E. coli BW25113 ΔtolC pDualRep2 reporter strains. The induction of the red fluorescent protein (RFP) expression (green halo around the inhibition zone) is triggered by DNA-damage, while the induction of Katushka2S protein (red halo) occurs in response to ribosome stalling. Levofloxacin (LEV), erythromycin (ERY), and chloramphenicol (CHL) are used as controls. This image is an overlay of the two images from the independent detections of RFP (Cy3 mode) or Ktushka2S (Cy5 mode) by ChemiDoc MP (Bio-Rad) with RFP fluorescence shown in green pseudocolor and Katushka2S fluorescence shown in red pseudocolor. (B,C) Competition-binding assay to test the displacement of fluorescently labeled BODIPY-CAM (B) or BODIPY-ERY (C) analogs from the E. coli 70S ribosomes in the presence of increasing concentrations of CAM (open diamonds), CHL (blue squares), or CAM-C4-TPP (red circles) measured by fluorescence anisotropy. […]
The amphenicol moieties of CAM-C4-TPP, its parent CHL, and the fluorescent derivative BODIPY-CAM are expected to have identical ribosome binding sites and, therefore, these compounds are expected to compete with each other for binding to the ribosome. […] The apparent dissociation constants KDapp of CHL determined from the displacement of BODIPY-CAM (2.6 ± 1.5 µM) or BODIPY-ERY (2.8 ± 0.5 µM) are consistent with each other and with the previously published data, including data determined by direct [^14C]-CHL binding (2.3 µM [30]). […]
(§3) Binding affinities of CHL analog CAM-C4-TPP, as well as other tested compounds, for the E. coli ribosome (Figure 2B,C) were analyzed by a competition-binding assay using fluorescently labeled BODIPY-CAM or BODIPY-ERY as described before. […]
Solutions of CHL, CAM, CAM-C4-TPP, or C4-TPP in different concentration ranges were added to the pre-formed ribosome/BODIPY-CAM or ribosome/BODIPY-ERY complexes. The mixtures were incubated for 2 h until equilibrium was reached and the values of fluorescence anisotropy were measured. […]

E. coli 70S ribosomes [3] = test: Competition-binding assay, displacement of BODIPY-ERY measured by fluorescence anisotropy; details: BODIPY-ERY 16 nM, ribosomes 50 nM, 25 °C, pH 7.5, n=3; read-out: Apparent dissociation constant KDapp, displacement of BODIPY-ERY
Description: as §2, with “anisotropy. All reactions were repeated three times. Error bars represent standard deviation. ND, no displacement.” for “anisotropy.”
as §3

[4] = system: cell-free transcription-translation system based on the E. coli S30 extract; test: In vitro cell-free transcription-translation inhibition assay, firefly luciferase synthesis; format: biochemical; details: for IC50 / Concentration at which nearly complete inhibition of protein synthesis was observed: E. coli S30 extract; for IC50: 37 °C, 30 min, n=3; for Concentration at which nearly complete inhibition of protein synthesis was observed: firefly luciferase
Description: as §1
To check whether the improved binding of CAM-C4-TPP to the ribosome correlates with stronger inhibition of translation, we tested its ability to interfere with in vitro protein synthesis. […] Thus, CAM-C4-TPP provides a promising foundation for future ribosome-targeting drug development.
In vitro assessment of inhibition of synthesis of firefly luciferase by the tested compounds (Figure 2D) was accomplished as described previously. Briefly, the in vitro transcribed firefly luciferase mRNA was translated using E. coli S30 Extract System for Linear Templates (Promega, USA). Reactions containing 100 ng of mRNA and […] 0.1 mM of D-luciferin from the Steady-Glo Luciferase Assay System (Promega) were preincubated for 5 min with different concentrations (0.5 µM, 1 µM, 5 µM, 10 µM, 30 µM, 50 µM, 100 µM) of the tested compounds and carried out in 5-µL aliquots at 37 °C for 30 min. The activity of in vitro synthesized luciferase was measured by VICTOR X5 Multilabel Plate Reader (Perkin Elmer, USA) every 30 s. Calculations of the IC50 values for the tested compounds were carried out using GraphPad Prism software.

[5] = system: ribosome stalling on rst1 and rst2 mRNAs; test: Toe-printing (primer extension inhibition) on rst1 and rst2 mRNAs in a cell-free translation system; format: biochemical; details: 30 µM compound
Description: The inhibition of protein synthesis by the PTC-targeting antibiotics depends on the amino-acid sequence of the nascent polypeptide chain and the identity of the incoming aminoacyl-tRNA in the A site of the ribosome. For example, CHL arrests translation only when alanine, and to a lesser extent, serine or threonine appear in the penultimate position (E site) of the growing polypeptide chain and only if there is no glycyl-tRNA in the A site of the ribosome. […] This method allows unambiguous identification of the drug-induced ribosome stalling site along the mRNA with a single nucleotide precision. This technique also allows for the determination of the context-specificity of drug action. A large set of ribosome-targeting antibiotics has been previously tested by toe-printing using rst1 or rst2 mRNAs as templates, because their sequences contain codons for almost all proteinogenic amino acids. Therefore, in order to be able to directly compare our results for CAM-C4-TPP with those for other antibiotics, we have chosen exactly the same experimental system.
Nevertheless, in the presence of CAM-C4-TPP, a fraction of ribosomes manages to escape the start codon, continues translation, and stalls at later codons within the ORF (Figure 6A,B, lanes 3 and 6).
Figure 6 CAM-C4-TPP is capable of arresting translation at the start codon. […]

E. coli 70S ribosomes [6] = test: Direct equilibrium binding of BODIPY-CAM measured by fluorescence anisotropy; details: BODIPY-CAM 4 nM, ribosomes 5 nM to 5 µM, 30 min; read-out: Apparent dissociation constant KDapp, direct equilibrium binding
Procedure: The apparent dissociation constant of BODIPY-CAM (KDapp = 3.5 ± 0.9 µM) was determined by its direct equilibrium binding to E. coli 70S ribosomes (Figure S1B). A solution of BODIPY-CAM (4 nM) in the buffer containing 20 mM HEPES-KOH (pH 7.5), 50 mM NH4Cl, 10 mM Mg(CH3COO)2, 4 mM β-mercaptoethanol, and 0.05% Tween-20 was mixed with ribosomes in the range of concentrations from 5 nM to 5 μM, incubated for 30 min, and the values of fluorescence anisotropy were measured.
Chen C.- W. et al. Supplementary Inform ation P age | 6of 10 […]
Fi g u re S1. Binding of BODIPY-CAM to E. coli 70S ribosomes measu re d b y f lu orescence an isot rop y.
(A) Chemical structure of fluorescent analog of chloramphenicol BODIPY-CAM. (B) Equilibrium binding isotherm of BODIPY-CAM to E. coli 70S ribosomes.Non -linear regression anal ysis of obt ained data yi elded an apparent dissociation constant of BO D IP Y -CAM ( KDapp = 3.5 ± 0.9 µM).
(1 picture or pasted object on this page, not shown here)

ribosome = molecular target: ribosome; design: method as in PMID 4563072; details: read-out: Dissociation constant by direct [14C]-CHL binding; cited from earlier work

SMILES	Induction of fluorescent reporters (Katushka2S = ribosome stalling; RFP = DNA damage/SOS response) [1]	Kd (E. coli 70S ribosomes [2]) [nM]	Kd (E. coli 70S ribosomes [3]) [nM]	IC50 [4] [nM]	Concentration at which nearly complete inhibition of protein synthesis was observed [4]	Drug-induced ribosome stalling sites (toe-printing) [5]	also measured
O=C(CCCC[P+](c1ccccc1)(c1ccccc1)c1ccccc1)N[C@H](CO)[C@H](O)c1ccc([N+](=O)[O-])cc1 [CAM-C4-TPP]	the expression of the fluorescent protein Katushka2S, but not of RFP, was strongly activated	600 ± 400	610 ± 70	900 ± 200	~ 10 µM	causes a significant portion of the ribosomes to stall at the initiator codons	Fold higher affinity for the ribosome compared to parent CHL (E. coli 70S ribosomes [2]; both displacement assays (BODIPY-CAM and BODIPY-ERY)): ~ 5 fold; Fold better IC50 compared to CHL ([4]; in vitro translation of firefly luciferase): more than 3 fold
CC[C@H]1OC(=O)[C@H](C)[C@@H](O[C@H]2C[C@@](C)(OC)[C@@H](O)[C@H](C)O2)[C@H](C)[C@@H](O[C@@H]2O[C@H](C)C[C@H](N(C)C)[C@H]2O)[C@](C)(O)C[C@@H](C)C(=O)[C@H](C)[C@@H](O)[C@]1(C)O [erythromycin]	induce expression of far-red fluorescent protein reporter Katushka2S						
CC1=CC(C)=[N+]2C1=Cc1ccc(CCCCC(=O)NC(CO)C(O)c3ccc([N+](=O)[O-])cc3)n1[B-]2(F)F (centres unmarked) [BODIPY-CAM]							Kd (E. coli 70S ribosomes [6]): 3500 ± 900 nM
O=C(N[C@H](CO)[C@H](O)c1ccc([N+](=O)[O-])cc1)C(Cl)Cl [CHL, chloramphenicol]	induce expression of far-red fluorescent protein reporter Katushka2S	2600 ± 1500	2800 ± 500	2800 ± 500	~ 10 µM	predominant ribosome stalling when the 6th serine (Ser6) or 4th alanine (Ala4) residues appeared in the penultimate position	Kd (ribosome): 2300 nM
O=C(O)CCCC[P+](c1ccccc1)(c1ccccc1)c1ccccc1.[Br-] [C4-TPP, (4-Carboxybutyl)triphenyl-phosphonium bromide]	does not induce any of the two reporters						Bacterial cell growth inhibition (inhibition zone) ([1]; 1.5 µL of C4-TPP 20 mM or CAM 2 mM): inhibits bacterial cell growth
C[C@H]1COc2c(N3CCN(C)CC3)c(F)cc3c(=O)c(C(=O)O)cn1c23 [levofloxacin]	induce expression of Red Fluorescent Protein (RFP) reporter						
